This assay deals with whole blood clot formation. Description: Ecarin-activated TEG hemostasis analysis of recalcified sodium-citrated samples taken before and after in vivo anticoagulation therapy. The arrangement: species or system human. The note with it: 14b. The text has this:
One exemplary protocol utilizes a sample, e.g., sample 13, that is obtained from a subject prior to administration of the anticoagulation therapy. Another sample is obtained at a first time period following administration of an anticoagulation therapy such as a direct thrombin inhibitor therapy like bivalirudin, heparin or warfarin. Each sample may be obtained into sodium citrate.
The sodium-citrated samples are recalcified, and an additional reagent is provided such as a prothrombin activator such as ecarin. The hemostasis analyzer 10 is used to measure the time to initial clot formation, R. FIG. 13 illustrates data for a sample of subjects showing time to initial clot formation R before in vivo administration of the anticoagulation therapy and after in vivo administration of the anticoagulation therapy. FIGS. 14a and 14b illustrate tracings and, respectively, showing a typical set of hemostasis parameter data before in vivo administration of the anticoagulation therapy and after in vivo administration of the anticoagulation therapy. […] Importantly, there exists correlation between the delay in initial clot formation and the dosing of the anticoagulation therapy. […]

In the case of bivalirudin, the “delay in onset of clot formation (time to initial clot formation R)” value (samples from subjects before vs after in vivo administration, recalcified citrated blood with ecarin, FIGS. 13, 14a) is recorded as “direct relationship to bivalirudin dosing”. The “rate of clot formation α, clot strength MA and lysis LY30” value (tracings before and after in vivo administration, FIGS. 14a) was “within expected norms”.

(Values after patent publication US8076144B2, “Protocol for risk stratification of ischemic events and optimized individualized treatment” (Cora Healthcare, Inc., priority 1999, dated 2011).)
